Columns and labels:
BIKDD = BIKDD levels in TNBC cell lines treated with IRE1α inhibitor; type: cell-based; conditions: TNBC cell lines Hs578T, MDA-MB157 and MDA-MB468
Method: (§1) Cell extraction was performed with RIPA lysis buffer containing 50 mM Tris (pH 8.0), 0.15 M NaCl, 1% NP40, 1% sodium deoxycholate, 0.1% SDS, 1 mM PMSF, 1 µg/ml aprotinin, and 1 µg/ml leupeptin. Western blot was performed with the standard protocol. For an efficient detection of BIK by Western blot, Tricine-SDS-PAGE was used. Western blot analyses of other proteins were performed with Glycine-SDS-PAGE. Immunoprecipitation was performed and analyzed as previously described. Briefly, cell lysates were incubated with primary antibody for overnight. The Pure Proteome Protein A/G Magnetic Beads (LSKMAGA/G10, EMD Millipore) were then added into cell lysates and incubated for 1.5 h. The beads were washed with RIPA lysis buffer and the bound proteins were analyzed by Western blot.

[1] = test system: Hs578T orthotopic breast tumors; experiment: BIKDD gene therapy model: orthotopic Hs578T tumors, intratumoral VISA-BIKDD plus STF-083010; type: in vivo, nude mice
Method: (§2) All mice were maintained according to the guidelines of animal ethical regulations, and all animal studies were approved by the Experimental Animal Committee, Academia Sinica. […] Seven days later, DMSO or STF-083010 (40 mg/kg) was intraperitoneally administrated every 3 days. […] Twenty-eight days later, DMSO or STF-083010 (40 mg/kg) was intraperitoneally administrated every 3-4 days. […] For both models, tumors were measured every 3 or 4 days, and their volumes were calculated using the equation: mm^3=[…]×length(mm)×(width(mm))^2.

[2] = test system: TNBC cells (Hs578T, MDA-MB157, MDA-MB468); experiment: MTT assay for viability of TNBC cells transfected with BIKDD and treated with IRE1α inhibitor; type: cell-based; conditions: 10 or 100 μM STF-083010, 48 h
Method: (§3) FIG. 7. […] (a, c) MTT assay for the viability of indicated TNBC cells transfected with […] CMV-BIKDD (a) or VISA-BIKDD (c) and treated with 10 or 100 μM STF-083010 for 48 h. CI values are indicated. (b) Western blot analysis of cleaved PARP in indicated TNBC cells transfected with CMV-BIKDD and treated with 100 μM STF-083010 for 36 h. […] Tumor volume were measured at indicated days and plotted. Data are mean±s.d., *P<0.05; ***P<0.001 by two-way ANOVA with Turkey's post test, n=5. Tumors were surgically removed at day 49 and their sizes are shown on the right. (e) Mice orthotopically implanted with Hs578T cells and treated with VISA-BIKDD lipid nanoparticle together with STF-083010 or DMSO starting at day 28 after tumor cell implantation (see Materials and Methods). Tumor volume were measured at indicated days and plotted. Data are mean±s.d., ***P<0.001 by two-way ANOVA with Turkey's post test, n=5. Tumors were surgically removed at day 66 and their sizes are shown on the right.
MDA-MB157 and MDA-MB 468 cells were seeded at a density of 5×10^3 cells and Hs578T cells were at 2×10^3 cells in 96-well plates. Cells were transfected with BIKDD. In the next day, cells were treated with IRE1α inhibitor or DMSO for 48 h and then with 0.4 mg/ml methylthiazolyldiphenyltetrazolium bromide (MTT) (Sigma) for 2 h. Cells were dissolved in DMSO, followed by absorbance measurement at 590 nm. The combination index (CI) was calculated using the equation: CI=CA/IC50A+CB/IC50B. CA and CB represent the concentrations of the two agents for combined treatment. IC50A and IC50B are the IC50 values for each single treatment, which were determined by treating cells with various dosages of each agent followed by MTT assay. (CI<1) indicates a synergistic effect, (CI>1) corresponds to an antagonistic effect, and (CI=1) represents an additive effect.

cleaved PARP = experiment: Western blot analysis of cleaved PARP in TNBC cells; type: cell-based; conditions: TNBC cells transfected with CMV-BIKDD, 100 μM STF-083010, 36 h; FIG. 7b
Method: as §3
(§4) Cell extraction was performed with RIPA lysis buffer containing 50 mM Tris (pH 8.0), 0.15 M NaCl, 1% NP40, 1% sodium deoxycholate, 0.1% SDS, 1 mM PMSF, 1 µg/ml aprotinin, and 1 µg/ml leupeptin. Western blot was performed with the standard protocol. […] Immunoprecipitation was performed and analyzed as previously described. […] The beads were washed with RIPA lysis buffer and the bound proteins were analyzed by Western blot.

[3] = test system: Hs578T orthotopic breast tumors; experiment: Orthotopic Hs578T tumor model, cells expressing BIKDD or control vector, treated with STF-083010; type: in vivo, nude mice
Method: as §2

p97 / ubiquitinated BIK = experiment: Immunoprecipitation analysis of p97 interaction with ubiquitinated BIK; type: cell-based; conditions: 293T cells, 10 μg/ml tunicamycin, 16 h
Method: (§5) FIG. 4. ER stress stimulates BIK ubiquitination and degradation through ASB11 and p97. (a) Western blot analysis of BIK and ASB11 levels in 293T cells treated with 10 μg/ml tunicamycin or 200 nM of thapsigargin for 16 h. (b) Western blot analysis of BIK levels in 293T cells treated with 10 μg/ml tunicamycin for 12 h and then with 50 μg/ml cycloheximide for indicated time periods. The relative amounts of BIK are indicated on the bottom. (c, e) Analysis of endogenous (c) or exogenous (e) BIK ubiquitination in 293T cells (c) or 293T derivatives as in FIG. 2d (e) transfected with indicated constructs and treated with tunicamycin. (d) Western blot analysis of 293T derivatives as in FIG. 2d treated with 10 μg/ml tunicamycin for 16 h. (f) Western blot analysis of BIK levels in 293T derivatives co-treated with 10 μg/ml tunicamycin and MG132 for 16 h. (g) Western blot analysis of BIK expression in 293T cells co-treated with tunicamycin and 10 μM CB-5083 for 16 h. […]
as §4, with “leupeptin.” for “leupeptin. Western blot was performed with the standard protocol.”

BIK [4] = experiment: Cycloheximide-chase analysis of BIK turnover in 293T cells; type: cell-based; conditions: 10 μg/ml tunicamycin 12 h then 50 μg/ml cycloheximide, FIG. 4b
Method: FIG. 4. ER stress stimulates BIK ubiquitination and degradation through ASB11 and p97. (a) Western blot analysis of BIK and ASB11 levels in 293T cells treated with 10 μg/ml tunicamycin or 200 nM of thapsigargin for 16 h. (b) Western blot analysis of BIK levels in 293T cells treated with 10 μg/ml tunicamycin for 12 h and then with 50 μg/ml cycloheximide for indicated time periods. The relative amounts of BIK are indicated on the bottom. (c, e) Analysis of endogenous (c) or exogenous (e) BIK ubiquitination in 293T cells (c) or 293T derivatives as in FIG. 2d (e) transfected with indicated constructs and treated with tunicamycin. (d) Western blot analysis of 293T derivatives as in FIG. 2d treated with 10 μg/ml tunicamycin for 16 h. (f) Western blot analysis of BIK levels in 293T derivatives co-treated with 10 μg/ml tunicamycin and MG132 for 16 h. (g) Western blot analysis of BIK expression in 293T cells co-treated with tunicamycin and 10 μM CB-5083 for 16 h. (h, i) Western blot analysis of BIK expression in 293T cells stably expressing indicated shRNAs and treated with 10 μg/ml tunicamycin for 16 h. The knockdown efficiency of each shRNA is shown on the right. (j) Immunoprecipitation analysis of p97 interaction with ubiquitinated BIK in 293T cells treated with 10 μg/ml tunicamycin for 16 h.

ASB11 mRNA = experiment: RT-qPCR analysis of ASB11 mRNA level under ER stress; type: cell-based; conditions: 293T, MDA-MB157 and MDA-MB468 cells; 16 h; FIG. 3a
Method: FIG. 3. ER stress induces ASB11 transcription through XBP1. (a, b) RT-qPCR analysis of ASB11 mRNA level in 293T cells (a) or 293T cells stably expressing control or XBP1 shRNAs (b) treated with tunicamycin or thapsigargin for 16 h. (c) RT-qPCR analysis of ASB11 mRNA expression in 293T cells transfected with control vector or XBP1s. (d) Schematic representation of the 5′-regulatory region of ASB11 gene, the luciferase reporters and the ChIP primers used in this study. (e, g) Luciferase reporter assay of 293T cells transfected with control or XBP1s expression construct together with the indicated reporter constructs. (f, k) qChIP assays in 293T cells (f) or 293T derivatives (k) treated with 10 μg/ml tunicamycin for 16 h using control IgG or XBP1s antibody for immunoprecipitation and indicated sets of primers for qPCR. […] P values are determined by t-test (a, b right panel, c, e) or 1-way ANOVA with Tukey's post test (b left panel, f, g, i, j, k). **P<0.01; ***P<0.001.
Total mRNA was extracted from cells using TRIZOL reagent (Invitrogen), and equal amounts of RNA were reverse transcribed to cDNA using the iScript™ cDNA Synthesis Kit (Bio-Rad). Quantitative real-time PCR was performed using the Power SYBR Green PCR Master kit (Applied Biosystems). […]

ASB11 = experiment: Western blot analysis of ASB11 protein expression under ER stress; type: cell-based; conditions: multiple cell lines; 10 μg/ml tunicamycin or 200 nM thapsigargin, 16 h; FIG. 4a
Method: as §5
as §4, with “leupeptin.” for “leupeptin. Western blot was performed with the standard protocol.”

BIK [5] = experiment: Western blot analysis of BIK levels in 293T cells; type: cell-based; conditions: multiple cell lines; 10 μg/ml tunicamycin or 200 nM thapsigargin, 16 h; FIG. 4a
Method: FIG. 2. […] (d) Western blot analysis of BIK levels in indicated cells stably expressing control or ASB11 shRNAs.
as §1

BIK [6] = experiment: Analysis of endogenous BIK ubiquitination in 293T cells; type: cell-based; conditions: FIG. 4c
Method: FIG. 4. ER stress stimulates BIK ubiquitination and degradation through ASB11 and p97. (a) Western blot analysis of BIK and ASB11 levels in 293T cells treated with 10 μg/ml tunicamycin or 200 nM of thapsigargin for 16 h. (b) Western blot analysis of BIK levels in 293T cells treated with 10 μg/ml tunicamycin for 12 h and then with 50 μg/ml cycloheximide for indicated time periods. The relative amounts of BIK are indicated on the bottom. (c, e) Analysis of endogenous (c) or exogenous (e) BIK ubiquitination in 293T cells (c) or 293T derivatives as in FIG. 2d (e) transfected with indicated constructs and treated with tunicamycin. (d) Western blot analysis of 293T derivatives as in FIG. 2d treated with 10 μg/ml tunicamycin for 16 h. (f) Western blot analysis of BIK levels in 293T derivatives co-treated with 10 μg/ml tunicamycin and MG132 for 16 h. (g) Western blot analysis of BIK expression in 293T cells co-treated with tunicamycin and 10 μM CB-5083 for 16 h. (h, i) Western blot analysis of BIK expression in 293T cells stably expressing indicated shRNAs and treated with 10 μg/ml tunicamycin for 16 h. The knockdown efficiency of each shRNA is shown on the right. (j) Immunoprecipitation analysis of p97 interaction with ubiquitinated BIK in 293T cells treated with 10 μg/ml tunicamycin for 16 h. […]

293T cells = experiment: ELISA assay of cell apoptosis (Cell Death ELISA) in 293T cells; type: cell-based; conditions: control 293T cells, early time point (12 h) after tunicamycin; FIG. 6e
Method: FIG. 6. Regulation of ASB11-mediated BIK ubiquitination influences on cell life-death decision under ER stress and DNA damage. (a, b) ELISA assay of cell apoptosis (a) and Western blot analysis of active caspase 3 and cleaved PARP (b) in HCT116 p53^+/+ cells stably expressing indicated ASB11 constructs and treated with 3 μg/ml doxorubicin for 24 h. (c, d) ELISA assay of cell apoptosis (c) and Western blot analysis of active caspase 3 and cleaved PARP (d) in HCT116 p53^+/+ cells transiently transfected with ASB11 and/or BIK and treated with 3 μg/ml doxorubicin for 24 h. (e, f) ELISA assay for cell apoptosis (e) and Western blot analysis of active caspase 3 and cleaved PARP (f) in 293T cells stably expressing indicated shRNAs and treated with […] tunicamycin for 12 h. The knockdown efficiencies of various shRNAs are shown on the bottom. (g) Western blot analysis of BIK level in 293T cells transiently transfected with indicated BIK constructs and treated with 10 μg/ml tunicamycin for 24 h. The equal expression of BIK and BIK(2KR) in untreated cells (by adjusting the amount of plasmid used for transfection) is shown. […]
Apoptosis was analyzed as previously described. […] Cells were harvested and DNA fragmentation was measured by Cell Death ELISA Kit (Roche).

| Compound | BIKDD levels (BIKDD) | anti-tumor effect of combined administration compared to BIKDD alone ([1]; VISA-BIKDD 0.75 mg/kg intratumoral every 7 days plus STF-083010 40 mg/kg i.p. every 3-4 days, FIG. 7e) | body weights of mice ([1]; VISA-BIKDD gene therapy model) | killing of TNBC cells in combination with BIKDD ([2]; CMV-BIKDD transfected Hs578T, MDA-MB157, MDA-MB468, FIG. 7a) | killing effect of co-administration with VISA-BIKDD ([2]; VISA-BIKDD transfected TNBC cells, FIG. 7c) | level of cleaved PARP, combinatory treatment (cleaved PARP) | tumor growth, combined treatment with BIKDD ([3]; BIKDD-expressing Hs578T cells plus STF-083010 40 mg/kg i.p. every 3 days, FIG. 7d) | body weights of mice ([3]; BIKDD-expressing cell model) | tumor growth, agent alone ([3]; BIKDD-expressing cells or STF-083010 40 mg/kg i.p. every 3 days, alone, FIG. 7d) | interaction of p97 with ubiquitinated BIK (p97 / ubiquitinated BIK) | turnover of endogenous BIK (BIK [4]) | expression of ASB11 mRNA (ASB11 mRNA) | ASB11 protein expression (ASB11) | BIK protein level (BIK [5]) | ubiquitination of endogenous BIK (BIK [6]) | apoptosis induction (293T cells) |
| --- | --- | --- | --- | --- | --- | --- | --- | --- | --- | --- | --- | --- | --- | --- | --- | --- |
| O=S(=O)(N=Cc1c(O)ccc2ccccc12)c1cccs1 [STF-083010, N-[(2-Hydroxy-1-naphthalenyl)methylene]-2-thiophenesulfonamide] | elevated | significant enhancement | not altered | synergized | synergistic | increased | greatly suppressed | not altered | modest reduction |  |  |  |  |  |  |  |
| tunicamycin |  |  |  |  |  |  |  |  |  | increased | increased | upregulated | elevated | reduced | increased | did not show sign of apoptosis induction |

Source: patent US20200215153A1, “CANCER TREATMENT AND/OR PREVENTION THROUGH REGULATION OF UBIQUITINATION” (Academia Sinica, priority 2018, published 2020)
